This note sets out measurements from ChEMBL document CHEMBL1147964, “Double mode of inhibition-inducing interactions of 1,4-naphthoquinone with urease: arylation versus oxidation of enzyme thiols” (Bioorg Med Chem, 2007).

The target of assay [1] is Urease (Canavalia ensiformis) (UniProt P07374). The assay is described as follows: Inhibition of jack bean urease assessed as residual activity at 30 uM.
Assay [2] has the same target. The assay is described as follows: Inhibition of jack bean urease assessed as residual activity at 85 uM.
Assay [3] has the same target. The assay is described as follows: Reactivation of jack bean urease activity in presence of DTT after 40 mins.
Assay [4] shares this target. The assay is described as follows: Inhibition of jack bean urease assessed as residual activity at 50 uM.

Sequence of Urease (Canavalia ensiformis) (P07374 whole entry, looked up): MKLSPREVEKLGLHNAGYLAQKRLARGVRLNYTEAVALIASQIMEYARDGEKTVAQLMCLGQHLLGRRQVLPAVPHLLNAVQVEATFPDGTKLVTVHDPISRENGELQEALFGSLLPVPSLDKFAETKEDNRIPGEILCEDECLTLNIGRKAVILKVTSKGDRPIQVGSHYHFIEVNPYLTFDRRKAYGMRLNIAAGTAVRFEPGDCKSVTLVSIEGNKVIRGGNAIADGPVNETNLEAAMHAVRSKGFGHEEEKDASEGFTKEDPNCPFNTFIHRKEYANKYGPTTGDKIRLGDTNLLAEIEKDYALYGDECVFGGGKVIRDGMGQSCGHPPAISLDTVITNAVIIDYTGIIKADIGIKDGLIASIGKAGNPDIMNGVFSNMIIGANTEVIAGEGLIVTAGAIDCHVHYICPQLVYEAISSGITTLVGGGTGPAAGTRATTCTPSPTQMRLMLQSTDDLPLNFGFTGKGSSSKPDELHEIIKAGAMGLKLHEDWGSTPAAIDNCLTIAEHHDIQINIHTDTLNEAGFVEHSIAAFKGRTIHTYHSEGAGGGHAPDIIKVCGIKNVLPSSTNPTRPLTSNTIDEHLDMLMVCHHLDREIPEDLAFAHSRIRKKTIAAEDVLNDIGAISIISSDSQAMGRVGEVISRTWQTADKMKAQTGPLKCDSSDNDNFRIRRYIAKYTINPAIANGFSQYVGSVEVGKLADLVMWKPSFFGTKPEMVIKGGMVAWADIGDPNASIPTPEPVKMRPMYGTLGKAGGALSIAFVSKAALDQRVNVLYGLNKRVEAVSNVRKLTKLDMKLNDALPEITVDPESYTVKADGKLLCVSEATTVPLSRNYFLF

As to `O=C1C=CC(=O)c2ccccc21`, the Activity in assay [1] was determined as 40%; in assay [2], 7%; in assay [3], 40%; in assay [4], 24%.
